Entries after “also recorded” stand apart in the source; their conditions may differ.
What was measured:
[1] = tested on: colistin-induced renal impairment; assay: Colistin nephropathy in rats, urinary NAG/CRE (Example 3)
Experimental: Cilastatin and colistin were co-administered to rats and it was investigated whether or not nephropathy due to colistin was reduced by the megalin ligand antagonistic action of cilastatin.
In evaluating the colistin nephropathy reduction effect due to cilastatin, a colistin solution and a cilastatin solution were prepared as follows.
In the preparation of the colistin solution, first, a colistin stock solution (colistin concentration: 10 mg/mL) was prepared by dissolving 360 mg of colistin sulfate in 30 mL of a saline solution. The colistin stock solution was sterilized by filtration with a 22 mm PVDF membrane and then stored at 4° C. and a colistin administration solution was prepared by diluting the solution with a saline solution before the colistin administration. […]
The concentrations of urinary β-D-N-acetyl-glucosaminidase (NAG) and creatinine (CRE) in the recovered urine were each measured using a measurement kit (product name: CREP 2 and BUNK, both were measured by Roche Diagnostics Co., Ltd.) using a discrete method automatic clinical chemistry analyzer (product name: COBAS INTEGRA 400 plus, manufactured by Roche Diagnostics Co., Ltd.), and the urinary NAG/CRE values of each test group were calculated.

megalin [2] = molecular target: T1, megalin (Rattus norvegicus, UniProt P98158)
Description: Next, detailed description will be given of the present invention through the illustration of examples, and the like; however, the present invention is not limited thereto. In the following Examples and the like, purified megalin from rat kidneys according to the method described in NPL 5 was used as the megalin, cilastatin sodium (produced by Sigma-Aldrich Co. LLC.) was used as the cilastatin, colistin sulfate (produced by Sigma-Aldrich Co. LLC.) was used as the colistin, gentamicin produced by Sigma-Aldrich Co. LLC. was used as the gentamicin, vancomycin produced by Sigma-Aldrich Co. LLC. was used as the vancomycin, tenofovir produced by Sigma-Aldrich Co. LLC. was used as the tenofovir, and cisplatin produced by Bristol-Myers Co., Ltd., was used as the cisplatin.
The antagonism effect with respect to the binding of colistin to megalin due to cilastatin was investigated using the QCM method.
As a control, measurement and analysis were carried out in the same manner except that cilastatin was not injected (cilastatin injection amount: 0 μg).
The antagonistic action of cilastatin on the binding of gentamicin, vancomycin, cisplatin, and tacrolimus to megalin was investigated using the QCM method.
Specifically, the measurement and analysis of the frequency were carried out in the same manner as for Example 1 except that the injection amount of cilastatin was set to 4000 μg and 4000 μg of gentamicin was used instead of 240 μg of colistin.
In addition, the measurement and analysis of the frequency were carried out in the same manner as for Example 1 except that the injection amount of cilastatin was set to 5000 μg and 1000 μg of vancomycin was used instead of 240 μg of colistin.
In addition, the measurement and analysis of the frequency were carried out in the same manner as for Example 1 except that the injection amount of cilastatin was set to 10000 μg and 800 μg of cisplatin was used instead of 240 μg of colistin.
Furthermore, the measurement and analysis of the frequency were carried out in the same manner as for Example 1 except that the injection amount of cilastatin was set to 2000 μg and 160 μg of tacrolimus was used instead of 240 μg of colistin.

[3] = tested on: ATCC25922 strain (E. coli standard strain); assay: Disk method anti-microbial activity (Reference Example 4); assay type: cell-based
Experimental: An ATCC25922 strain (E. coli standard strain) was cultured for 20 hours using Mueller Hinton agar (MHA) and then the cultured colonies were suspended in saline and adjusted to obtain a solution equivalent to McFarland turbidity standard 0.5. After uniformly coating and drying the microbial solution on the MHA, 10 μg of colistin, cilastatin, and colistin and cilastatin were each added to 6 mm Whatman filter paper discs, disposed at equal intervals on the MHA described above, and cultured for 20 hours at 37° C., and the blocking circles were compared.

[4] = tested on: kidney tissue (renal tubular cell damage); assay: Nephrotoxicity caused by colistin in C57BL/6 mice, PAS staining and KIM-1 Western blot (Example 4)
Experimental: Division was made into a group in which 30 mg/kg/day of colistin was subcutaneously administered over four days to 12-week-old male C57BL/6 mice (colistin-administered group: colstin), a group in which 100 mg/kg/day of cilastatin was subcutaneously administered over four days in combination with the subcutaneous administration of 30 mg/kg/day of colistin over four days (colistin+cilastatin combination group: colstin+cilastatin), and, as a control, a group in which a physiological saline solution was subcutaneously administered over four days instead of colistin (saline group: saline), administration was performed in the same manner as the protocol of Reference Example 2 described above, after that, the kidney tissue was taken and histochemical staining (PAS staining) was performed.
Furthermore, using the extracted kidney tissue, the expression of KIM-1, which is a renal tubular cell damage marker, was confirmed by Western blot.

[5] = tested on: nephrotoxicity of cisplatin; details: rats, reported in PTL 2; cited from earlier work
megalin [6] = molecular target: T1, megalin; assay: QCM method: binding ability to immobilized megalin (Reference Example 1); set-up: purified megalin from rat kidneys according to the method described in NPL 5 was used as the megalin; from tissue; host or cells: rat kidney; details: megalin protein immobilized crystal, colistin 240 μg, gentamicin 4000 μg, vancomycin 1600 μg, cisplatin 400 μg, tenofovir 1200 μg
Experimental: The binding ability of colistin, gentamicin, vancomycin, cisplatin, and tenofovir with respect to megalin was analyzed using the quartz crystal microbalance method (QCM method).
Regarding the immobilization of megalin protein using the Immobilization Kit for AFFINIX (registered trademark) (manufactured by Initium), according to the protocol recommended in the kit, a megalin protein solution adjusted to 12 to 14 μg/mL using Buffer A included in the kit was immobilized by being placed on the crystal installed in the holder.
In more detail, 8 μL of each drug solution was injected to the megalin protein-immobilized crystal placed in the surface of water containing 8 mL of buffer, and the frequency was measured. As a control, measurement was also performed in the same manner with respect to a crystal where the megalin protein was not immobilized. The measurement data was analyzed using dedicated analysis software AQUA (produced by Initium).

proximal tubular cells = assay: Renal tubular cell damage by colistin in kidney specific mosaic-type megalin knockout mice (Reference Examples 2 and 3); assay type: in vivo, mice (apoE cre/megalin loxP)
Experimental: Renal tubular cell damage caused when colistin was administered to megalin mosaic-type knockout mice was analyzed.
First, 12-week-old kidney specific mosaic-type megalin knockout mice (apoE cre/megalin loxP) were used in the experiments (in these mice, genes expressing megalin in about 60% of proximal tubular cells were knocked out). With respect to these mice, the subcutaneous administration of colistin was performed over four days (30 mg/kg/day), after that, proximal tubular cells were analyzed and immunohistochemical staining was performed.
With the same method as in Reference Example 2, colistin was administered to renal-specific mosaic-type megalin knockout mice, after that, the proximal tubular cells were analyzed, and the expression of KIM-1 (Kidney Injury Molecule 1), which is an injury marker of proximal tubular cells, and the expression of megalin were confirmed using a fluorescent double staining method.

[7] = 10 μg on 6 mm filter paper disc, MHA, 20 hours at 37° C.
[8] = colistin 30 mg/kg/day subcutaneous over four days

T1 sequence (P98158 26-4660): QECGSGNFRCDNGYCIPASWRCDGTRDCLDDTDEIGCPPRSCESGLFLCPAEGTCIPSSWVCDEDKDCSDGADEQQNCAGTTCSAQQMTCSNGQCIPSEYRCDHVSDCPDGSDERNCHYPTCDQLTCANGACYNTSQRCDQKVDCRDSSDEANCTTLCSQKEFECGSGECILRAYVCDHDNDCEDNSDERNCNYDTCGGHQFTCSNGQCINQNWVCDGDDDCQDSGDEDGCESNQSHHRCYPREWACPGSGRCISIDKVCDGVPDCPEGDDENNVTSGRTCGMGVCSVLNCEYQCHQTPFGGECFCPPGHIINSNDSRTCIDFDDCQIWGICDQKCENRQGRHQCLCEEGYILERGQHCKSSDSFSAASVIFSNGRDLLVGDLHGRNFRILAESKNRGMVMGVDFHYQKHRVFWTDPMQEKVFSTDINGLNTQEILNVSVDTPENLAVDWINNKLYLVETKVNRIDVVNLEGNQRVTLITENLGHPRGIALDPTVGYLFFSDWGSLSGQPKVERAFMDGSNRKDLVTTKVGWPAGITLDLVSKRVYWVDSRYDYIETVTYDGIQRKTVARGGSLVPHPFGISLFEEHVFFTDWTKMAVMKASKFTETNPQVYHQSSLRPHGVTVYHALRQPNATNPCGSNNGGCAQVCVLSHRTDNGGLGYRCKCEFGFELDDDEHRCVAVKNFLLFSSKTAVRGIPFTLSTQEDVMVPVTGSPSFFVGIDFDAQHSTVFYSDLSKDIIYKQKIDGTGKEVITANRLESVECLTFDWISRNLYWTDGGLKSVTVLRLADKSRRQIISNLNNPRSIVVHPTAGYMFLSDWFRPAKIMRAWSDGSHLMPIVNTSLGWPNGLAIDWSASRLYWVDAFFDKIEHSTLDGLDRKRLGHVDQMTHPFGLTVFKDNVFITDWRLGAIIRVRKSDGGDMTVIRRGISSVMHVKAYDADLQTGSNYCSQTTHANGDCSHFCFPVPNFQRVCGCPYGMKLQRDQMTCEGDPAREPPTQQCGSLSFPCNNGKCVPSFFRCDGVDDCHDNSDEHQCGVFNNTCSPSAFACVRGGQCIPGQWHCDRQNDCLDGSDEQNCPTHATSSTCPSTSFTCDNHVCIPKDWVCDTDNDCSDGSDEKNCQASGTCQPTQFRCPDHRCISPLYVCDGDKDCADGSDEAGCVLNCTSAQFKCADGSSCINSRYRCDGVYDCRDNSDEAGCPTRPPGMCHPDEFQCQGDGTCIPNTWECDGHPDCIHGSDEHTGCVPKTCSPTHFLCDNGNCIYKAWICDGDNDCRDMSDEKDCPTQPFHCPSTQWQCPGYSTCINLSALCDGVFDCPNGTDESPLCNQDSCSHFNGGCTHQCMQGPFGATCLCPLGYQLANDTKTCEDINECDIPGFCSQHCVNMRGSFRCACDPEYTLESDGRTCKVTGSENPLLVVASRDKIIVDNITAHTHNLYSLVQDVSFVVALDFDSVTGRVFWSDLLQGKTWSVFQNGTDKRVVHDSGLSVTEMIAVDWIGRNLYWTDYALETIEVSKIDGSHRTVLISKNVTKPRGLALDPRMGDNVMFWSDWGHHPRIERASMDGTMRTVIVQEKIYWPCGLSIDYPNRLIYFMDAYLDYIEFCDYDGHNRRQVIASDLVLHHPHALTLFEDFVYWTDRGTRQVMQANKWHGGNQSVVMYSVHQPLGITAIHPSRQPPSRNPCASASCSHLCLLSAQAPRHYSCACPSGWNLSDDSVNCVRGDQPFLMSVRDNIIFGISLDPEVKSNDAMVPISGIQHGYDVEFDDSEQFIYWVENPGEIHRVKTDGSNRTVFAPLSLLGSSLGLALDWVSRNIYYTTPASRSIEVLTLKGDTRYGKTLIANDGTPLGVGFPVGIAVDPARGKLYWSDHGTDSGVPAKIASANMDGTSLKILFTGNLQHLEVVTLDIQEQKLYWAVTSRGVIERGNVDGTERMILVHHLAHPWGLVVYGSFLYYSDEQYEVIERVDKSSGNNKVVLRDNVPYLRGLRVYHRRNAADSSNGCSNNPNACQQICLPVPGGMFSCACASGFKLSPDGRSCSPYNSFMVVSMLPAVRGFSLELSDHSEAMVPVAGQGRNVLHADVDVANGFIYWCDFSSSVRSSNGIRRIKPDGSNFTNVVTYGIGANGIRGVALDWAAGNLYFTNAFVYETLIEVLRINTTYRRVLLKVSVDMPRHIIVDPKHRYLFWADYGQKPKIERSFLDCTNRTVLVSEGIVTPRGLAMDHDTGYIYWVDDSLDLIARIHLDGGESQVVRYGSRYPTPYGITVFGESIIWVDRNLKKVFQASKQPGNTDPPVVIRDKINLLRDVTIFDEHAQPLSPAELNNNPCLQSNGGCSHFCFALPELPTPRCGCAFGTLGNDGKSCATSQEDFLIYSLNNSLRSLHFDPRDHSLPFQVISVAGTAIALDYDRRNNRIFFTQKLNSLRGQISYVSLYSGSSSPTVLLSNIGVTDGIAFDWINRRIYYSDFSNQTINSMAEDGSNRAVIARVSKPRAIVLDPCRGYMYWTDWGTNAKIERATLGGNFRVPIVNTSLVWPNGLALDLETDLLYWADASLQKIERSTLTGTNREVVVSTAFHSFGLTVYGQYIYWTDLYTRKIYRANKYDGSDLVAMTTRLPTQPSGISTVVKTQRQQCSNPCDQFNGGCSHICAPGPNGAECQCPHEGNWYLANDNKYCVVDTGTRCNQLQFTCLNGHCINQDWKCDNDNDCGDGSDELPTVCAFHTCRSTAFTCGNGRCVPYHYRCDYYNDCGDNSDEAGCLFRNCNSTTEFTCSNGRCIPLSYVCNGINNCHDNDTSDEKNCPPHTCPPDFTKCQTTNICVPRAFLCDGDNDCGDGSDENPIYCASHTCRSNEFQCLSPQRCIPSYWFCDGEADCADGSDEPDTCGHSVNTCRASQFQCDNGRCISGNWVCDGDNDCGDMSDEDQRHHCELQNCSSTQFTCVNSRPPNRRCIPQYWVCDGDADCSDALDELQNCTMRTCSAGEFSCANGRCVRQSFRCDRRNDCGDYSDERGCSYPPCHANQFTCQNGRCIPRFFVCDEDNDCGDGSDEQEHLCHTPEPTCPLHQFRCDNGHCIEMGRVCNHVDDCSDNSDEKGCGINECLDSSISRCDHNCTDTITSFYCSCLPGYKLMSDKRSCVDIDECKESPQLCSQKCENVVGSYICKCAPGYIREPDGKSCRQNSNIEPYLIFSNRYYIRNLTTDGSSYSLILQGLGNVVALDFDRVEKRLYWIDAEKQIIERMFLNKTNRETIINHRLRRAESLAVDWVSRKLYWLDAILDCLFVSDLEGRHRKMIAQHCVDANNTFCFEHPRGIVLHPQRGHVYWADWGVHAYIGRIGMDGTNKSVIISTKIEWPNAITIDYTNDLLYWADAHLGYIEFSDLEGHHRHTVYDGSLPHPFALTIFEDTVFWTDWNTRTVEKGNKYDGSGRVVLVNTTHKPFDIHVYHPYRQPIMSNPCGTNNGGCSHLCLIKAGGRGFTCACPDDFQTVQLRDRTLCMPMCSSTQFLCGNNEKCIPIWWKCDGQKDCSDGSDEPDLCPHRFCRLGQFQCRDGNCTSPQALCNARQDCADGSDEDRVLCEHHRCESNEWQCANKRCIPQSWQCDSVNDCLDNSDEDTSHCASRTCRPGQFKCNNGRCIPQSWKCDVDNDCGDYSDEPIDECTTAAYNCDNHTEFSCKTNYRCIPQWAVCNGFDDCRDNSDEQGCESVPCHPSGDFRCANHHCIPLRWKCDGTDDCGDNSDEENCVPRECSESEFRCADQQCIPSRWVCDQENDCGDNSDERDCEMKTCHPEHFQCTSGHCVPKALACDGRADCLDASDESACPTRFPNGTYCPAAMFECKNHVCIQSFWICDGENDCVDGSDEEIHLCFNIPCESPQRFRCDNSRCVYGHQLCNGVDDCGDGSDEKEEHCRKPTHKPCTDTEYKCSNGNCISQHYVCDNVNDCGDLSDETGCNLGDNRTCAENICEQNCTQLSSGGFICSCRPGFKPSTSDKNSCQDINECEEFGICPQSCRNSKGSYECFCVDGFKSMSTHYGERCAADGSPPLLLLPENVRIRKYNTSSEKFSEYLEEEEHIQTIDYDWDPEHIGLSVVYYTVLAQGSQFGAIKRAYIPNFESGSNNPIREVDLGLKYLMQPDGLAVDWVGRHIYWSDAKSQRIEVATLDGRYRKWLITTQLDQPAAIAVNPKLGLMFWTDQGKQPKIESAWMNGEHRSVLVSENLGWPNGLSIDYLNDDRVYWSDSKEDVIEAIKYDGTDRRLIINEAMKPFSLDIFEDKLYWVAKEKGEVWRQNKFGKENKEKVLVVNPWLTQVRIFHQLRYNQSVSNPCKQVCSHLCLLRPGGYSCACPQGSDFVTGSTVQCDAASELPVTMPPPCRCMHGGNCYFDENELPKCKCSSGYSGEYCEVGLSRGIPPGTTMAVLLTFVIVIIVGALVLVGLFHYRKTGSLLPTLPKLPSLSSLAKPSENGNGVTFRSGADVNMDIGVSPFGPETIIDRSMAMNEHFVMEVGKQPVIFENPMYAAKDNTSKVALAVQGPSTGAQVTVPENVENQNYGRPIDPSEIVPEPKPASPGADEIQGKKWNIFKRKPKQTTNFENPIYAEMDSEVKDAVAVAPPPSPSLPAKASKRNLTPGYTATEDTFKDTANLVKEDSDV

Compound: CC1(C)C[C@@H]1C(=O)N/C(=C\CCCCSC[C@H](N)C(=O)O)C(=O)O [cilastatin, (Z)-7-[[(R)-2-amino-2-carboxyethyl]thio]-2-[[[(S)-2,2-dimethylcyclopropyl]carbonyl]amino]-2-heptenoic acid]
- colistin-induced renal impairment ([1]; co-administration of cilastatin 100 mg/kg with colistin, rats): colistin-induced renal impairment was reduced
- inhibition of binding of tacrolimus to megalin protein (megalin [2]; cilastatin 2000 μg before 160 μg tacrolimus): inhibited by cilastatin
- inhibition of binding of gentamicin to megalin protein (megalin [2]; cilastatin 4000 μg before 4000 μg gentamicin): inhibited by cilastatin
- inhibition of binding of vancomycin to megalin protein (megalin [2]; cilastatin 5000 μg before 1000 μg vancomycin): inhibited by cilastatin
- inhibition of binding of cisplatin to megalin protein (megalin [2]; cilastatin 10000 μg before 800 μg cisplatin): inhibited by cilastatin
- inhibition of binding of colistin to megalin protein (megalin [2]; cilastatin 800, 5000 or 10000 μg injected before 240 μg colistin): inhibited depending on the concentration of the cilastatin
- blocking circle / anti-microbial activity [3, 7]: a blocking circle was not formed and anti-microbial activity was not exhibited; also recorded: anti-microbial activity could not be seen
- influence on the anti-microbial activity of colistin ([3]; colistin and cilastatin on the same disc): does not affect the anti-microbial activity of colistin
- renal tubular cell damage caused by colistin, histologically and biochemically ([4]; cilastatin 100 mg/kg/day combined with colistin 30 mg/kg/day): remarkably improved
- nephrotoxicity of cisplatin on co-administration with cilastatin [5]: the nephrotoxicity was improved

Compound: N.N.[Cl][Pt][Cl] [cisplatin]
- binding to megalin (frequency decrease after injection) (megalin [6]): binding to megalin was confirmed

Compound: C=CC[C@@H]1/C=C(\C)C[C@H](C)C[C@H](OC)[C@H]2O[C@@](O)(C(=O)C(=O)N3CCCC[C@H]3C(=O)O[C@H](/C(C)=C/[C@@H]3CC[C@@H](O)[C@H](OC)C3)[C@H](C)[C@@H](O)CC1=O)[C@H](C)C[C@@H]2OC [tacrolimus]
- binding to megalin (frequency decrease after injection) (megalin [6]): binding to megalin was confirmed

Compound: C[C@H](Cn1cnc2c(N)ncnc21)OCP(=O)(O)O [tenofovir]
- binding to megalin (frequency decrease after injection) (megalin [6]): not possible to find the binding

Compound: CN[C@H](CC(C)C)C(=O)N[C@H]1C(=O)N[C@@H](CC(N)=O)C(=O)N[C@H]2C(=O)N[C@H]3C(=O)N[C@H](C(=O)N[C@H](C(=O)O)c4cc(O)cc(O)c4-c4cc3ccc4O)[C@H](O)c3ccc(c(Cl)c3)Oc3cc2cc(c3O[C@@H]2O[C@H](CO)[C@@H](O)[C@H](O)[C@H]2O[C@H]2C[C@](C)(N)[C@H](O)[C@H](C)O2)Oc2ccc(cc2Cl)[C@H]1O [vancomycin]
- binding to megalin (frequency decrease after injection) (megalin [6]): binding to megalin was confirmed

Compound: colistin
- KIM-1 expression in proximal tubular cells (proximal tubular cells; colistin 30 mg/kg/day subcutaneous over four days, fluorescent double staining with megalin): KIM-1 was also expressed in the proximal tubular cells in which megalin, which remained without being knocked out, was expressed
- vacuoles in cytoplasm of proximal tubular cells expressing megalin versus megalin knocked out cells (proximal tubular cells; colistin 30 mg/kg/day subcutaneous over four days, immunohistochemical staining): numerous vacuoles (arrows) were observed in the cytoplasm
- dependence of proximal renal tubular cell damage on megalin expression (proximal tubular cells; mosaic-type megalin knockout mice): largely depended on the expression of megalin
- urinary NAG/CRE values relative to saline/saline group ([1]; saline/colistin group, fifth day, colistin total 20.5 mg/kg over 5 days into jugular vein): ≥ 4 times
- binding to megalin (frequency decrease after injection) (megalin [6]): binding to megalin was confirmed
- blocking circle / anti-microbial activity [3, 7]: a growth inhibition circle was formed
- blocking circle diameter [3, 7]: 13.5 mm
- dilatation and cast formation of the tubules (PAS staining) [4, 8]: dilatation and cast formation of the tubules was observed
- expression of KIM-1 in kidney tissue (Western blot) [4, 8]: increased expression of KIM-1 was observed

Compound: gentamicin
- binding to megalin (frequency decrease after injection) (megalin [6]): binding to megalin was confirmed

From US10420741B2, “Megalin antagonist” (EA Pharma Co., Ltd., priority 2014, dated 2019)
